Results on three compounds are retold here after US5583113A, “Use of a direct-acting thrombin inhibitor for the manufacture of a medicinal product having thrombolytic activity” (Synthelabo, priority 1992, dated 1996).

The structures appear in SMILES notation.

This test relates to electrical stimulation induced occlusive aortic thrombosis. Briefly: Thrombolytic activity in a rat model of electrical stimulation induced occlusive aortic thrombosis. Type of test: in vivo, CD rats. The settings on record: for Area under the curve (cm^2 ± s.e.m.): area under the blood flow trace; for Area under the curve (cm^2 ± s.e.m.) / Number of animals showing thrombolyis: n=8; for Thrombolytic activity (result in words): in the absence of exogenous plasminogen activators. The procedure:
The compounds which are usable according to the invention were studied in rats for their activity as thrombolytic agents in a model of electrical stimulation induced occlusive aortic thrombosis.
CD rats weighing 450 g to 500 g are anaesthetized with sodium pentobarbital (60 mg/kg i.p.) and the left renal artery is catheterized. Thrombosis is induced according to the method described by Hladovec (Throm. Haemosts. (1971), 26, 407-410). A segment of abdominal aorta approximately 1 cm in length is exposed between the renal artery and the iliac bifurcation, and an electromagnetic flow probe is placed around this segment to measure blood flow rate, and a bipolar electrode is placed downstream of the probe. After 15 minutes of stabilisation, a 5 mA direct current is applied for 5 minutes to the outer surface of the artery using a stimulator. When the flow rate reaches the zero value, previously determined by clamping the artery between the probe and the electrode, the time to formation of an occlusive thrombus is noted. After 5 minutes of stabilisation of the thrombus, the test compound or the vehicle is injected via the catheter as a 0.5 ml bolus followed by a 60 minute perfusion at 0.1 ml/min. The blood flow rate is recorded during the perfusion period. Thrombolysis is estimated by measuring the area under the blood flow trace, which reflects both the time to, and the extent of recanalisation. The results are expressed as a mean #standard error of the mean.
In animals receiving the vehicle, the abdominal aorta remains occluded throughout the period of administration. In contrast, direct acting thrombin inhibitors increase the area under the curve in a dose-dependent manner and rapidly restore blood flow.

The mark [1] stands for this setting: dose 100 + 20 μg/kg + μg/kg/min.
The mark [2] stands for this setting: dose 100 + 20 μg/kg + μg/kg/min (bolus + 60 minute perfusion).
Setting [3] is: dose 200 + 40 μg/kg + μg/kg/min.
The mark [4] stands for this setting: dose 200 + 40 μg/kg + μg/kg/min (bolus + 60 minute perfusion).
Where [5] appears, read: dose 400 + 80 μg/kg + μg/kg/min.

As to `CC1CNc2c(cccc2S(=O)(=O)N[C@@H](CCCNC(=N)N)C(=O)N2CC[C@@H](C)C[C@@H]2C(=O)O)C1` (stereo partly drawn) [Argatroban, argatroban], the “Thrombolytic activity (result in words)” value is “have shown thrombolytic activity”. For the setting “dose 25 + 5 μg/kg + μg/kg/min”, the “% Increase (area under the curve vs vehicle)” value (“% Increase” for short) is given as 284% and the “Number of animals showing thrombolyis” value amounted to 4. In addition, the “Area under the curve (cm^2 ± s.e.m.)” value (dose 25 + 5 μg/kg + μg/kg/min (bolus + 60 minute perfusion)) was 137.5 ± 45.6 cm^2. Under setting [1], the “% Increase” value was 406% and the “Number of animals showing thrombolyis” value is listed as 3. The “Area under the curve (cm^2 ± s.e.m.)” value under setting [2] amounted to 181.1 ± 99.6 cm^2. Under setting [3], the “% Increase” value is 1186% and the “Number of animals showing thrombolyis” value came out at 7. For the same compound, the “Area under the curve (cm^2 ± s.e.m.)” value under setting [4] is reported as 460.3 ± 86.5 cm^2.

As for `NC(N)=NCCC[C@H](NC(=O)[C@@H]1CCCN1C(=O)[C@H](N)Cc1ccccc1)C(=O)CCl` [PPACK, D-Phe-Pro-Arg chloromethyl ketone], the “Thrombolytic activity (result in words)” value is “have shown thrombolytic activity”. Also, where the note is “dose 50 + 10 μg/kg + μg/kg/min”, the “% Increase” value was 572% and the “Number of animals showing thrombolyis” value amounted to 5. In addition, the “Area under the curve (cm^2 ± s.e.m.)” value (dose 50 + 10 μg/kg + μg/kg/min (bolus + 60 minute perfusion)) was 291.7 ± 96.5 cm^2. Under setting [1], the “% Increase” value amounted to 556% and the “Number of animals showing thrombolyis” value is recorded as 5. Further, the “Area under the curve (cm^2 ± s.e.m.)” value under setting [2] amounted to 284.8 ± 98.9 cm^2. In addition, under setting [3], the “% Increase” value is 1148% and the “Number of animals showing thrombolyis” value stood at 7. The “Area under the curve (cm^2 ± s.e.m.)” value under setting [4] was 542.7 ± 75.2 cm^2.

Take `CC(=O)N[C@H](Cc1ccccc1)C(=O)N1CCC[C@H]1C(=O)N[C@@H](CCCN=C(N)N)B(O)O` [DUP714, Ac-(D-Phe)-Pro-boro-Arg-OH]: the “Thrombolytic activity (result in words)” value is “have shown thrombolytic activity”. Moreover, under setting [1], the “% Increase” value stood at 620% and the “Number of animals showing thrombolyis” value worked out at 5. Moreover, the “Area under the curve (cm^2 ± s.e.m.)” value under setting [2] was 339.7 ± 84.7 cm^2. For the same compound, under setting [3], the “% Increase” value worked out at 667% and the “Number of animals showing thrombolyis” value was 7. Under setting [4], the “Area under the curve (cm^2 ± s.e.m.)” value was 362.3 ± 61.1 cm^2. In addition, under setting [5], the “% Increase” value was found to be 1118% and the “Number of animals showing thrombolyis” value is on record as 8. The “Area under the curve (cm^2 ± s.e.m.)” value (dose 400 + 80 μg/kg + μg/kg/min (bolus + 60 minute perfusion)) amounted to 575.3 ± 99.0 cm^2.
